Test results: ChEMBL document CHEMBL1150207, “Cytotoxicities of some flavonoid analogues” (1991)
≈ marks a conversion by molar mass, not a printed value.

Key:
Format in all cases: functional
A549 = assay: Cytotoxicity against human A549 cells after 6 days by MTT assay; details: A549, 144 h, read-out: ED50 (the source's name)
MCF7 = assay: Cytotoxicity against human MCF7 cells after 6 days by MTT assay; details: MCF7, 144 h, read-out: ED50 (the source's name)
HT-29 = assay: Cytotoxicity against human HT-29 cells after 6 days by MTT assay; details: HT-29, 144 h, read-out: ED50 (the source's name)
SK-MEL = assay: Cytotoxicity against human SK-MEL cells after 6 days by MTT assay; details: 144 h, read-out: ED50 (the source's name)
Malme-3M = assay: Cytotoxicity against human MALME-3M cells after 6 days by MTT assay; details: 144 h, read-out: ED50 (the source's name)

Row | Structure (SMILES) | EC50 (A549) [µg/mL] | EC50 (MCF7) [µg/mL] | EC50 (HT-29) [µg/mL] | EC50 (SK-MEL) [µg/mL] | EC50 (Malme-3M) [µg/mL]
1 | COC(=O)c1c(-c2ccc([N+](=O)[O-])cc2)oc2cc(OC)ccc2c1=O | > 25 | > 25 | > 25 | 2.84 (≈ 7.99 µM) | 1.12 (≈ 3.15 µM)
2 | COC(=O)c1c(-c2ccc(OCc3ccccc3)cc2)oc2cc(OC)ccc2c1=O | 20.4 (≈ 49.1 µM) | 5.16 (≈ 12.4 µM) | 5.42 (≈ 13 µM) | > 25 | > 25
3 | COc1ccc2c(=O)c(C(=O)O)c(-c3ccc([N+](=O)[O-])cc3)oc2c1 | > 25 | > 25 | > 25 | > 25 | > 25
4 | COC(=O)c1c(-c2ccc(N)cc2)oc2ccccc2c1=O | > 25 | > 25 | > 25 | > 25 | > 25
5 | O=c1cc(-c2ccc([N+](=O)[O-])cc2)oc2c(O)c(O)ccc12 | 2.56 (≈ 8.56 µM) | 4.69 (≈ 15.7 µM) | 3.46 (≈ 11.6 µM) | 3.29 (≈ 11 µM) | 3.61 (≈ 12.1 µM)
6 | COc1cc(-c2cc(=O)c3ccc(O)c(O)c3o2)cc(OC)c1OC | 5.27 (≈ 15.3 µM) | 1.11 (≈ 3.22 µM) | 3.66 (≈ 10.6 µM) | > 25 | > 25
7 | COc1cc(-c2cc(=O)c3c(O)cccc3o2)cc(OC)c1O | 0.74 (≈ 2.35 µM) | 0.51 (≈ 1.62 µM) | > 25 | > 25 | > 25
8 | CC(C)(C)[Si](C)(C)Oc1ccc(-c2cc(=O)c3ccc(O)cc3o2)cc1 | 6.45 (≈ 17.5 µM) | 4.66 (≈ 12.6 µM) | 3.61 (≈ 9.8 µM) | 5.64 (≈ 15.3 µM) | > 10
9 | COc1cc(-c2cc(=O)c3ccc(O)cc3o2)cc(OC)c1OC | > 25 | > 25 | > 25 | > 25 | > 25
10 | CC(=O)Nc1ccc(-c2cc(=O)c3ccc(OC(C)=O)cc3o2)cc1 | 20.5 (≈ 60.9 µM) | 19.2 (≈ 56.9 µM) | 19.8 (≈ 58.7 µM) | 16.9 (≈ 50.1 µM) | > 25
11 | COc1cc(-c2cc(=O)c3ccc(O)cc3o2)cc(OC)c1O[Si](C)(C)C(C)(C)C | 5.3 (≈ 12.4 µM) | 4.47 (≈ 10.4 µM) | 1 (≈ 2.33 µM) | > 25 | > 25
12 | COc1cc(-c2cc(=O)c3cc(O)ccc3o2)cc(OC)c1O | > 25 | > 25 | > 25 | 5.68 (≈ 18.1 µM) | > 25
13 | COc1cc(-c2cc(=O)c3ccc(O)cc3o2)cc(OC)c1O | > 25 | > 25 | 6.5 (≈ 20.7 µM) | > 25 | > 25
14 | COc1ccc2oc(-c3cc(OC)c(OC)c(OC)c3)cc(=O)c2c1 | > 25 | > 25 | > 25 | > 25 | > 25
15 | COc1cc(-c2cc(=O)c3ccc(OC(C)=O)cc3o2)cc(OC)c1O | > 25 | > 25 | > 25 | > 25 | > 25
16 | COc1cc(-c2cc(=O)c3ccc(OC(C)=O)c(OC(C)=O)c3o2)cc(OC)c1O[Si](C)(C)C(C)(C)C | > 25 | > 25 | > 25 | 0.14 (≈ 0.265 µM) | 0.31 (≈ 0.586 µM)
17 | CC(=O)Nc1ccc(-c2cc(=O)c3c(OC(C)=O)cc(OC(C)=O)cc3o2)cc1 | 22 (≈ 55.6 µM) | 1.78 (≈ 4.5 µM) | 17.4 (≈ 44 µM) | 14 (≈ 35.3 µM) | > 25
18 | COc1cc(-c2cc(=O)c3cc(O)ccc3o2)cc(OC)c1O[Si](C)(C)C(C)(C)C | 3.19 (≈ 7.44 µM) | 2.01 (≈ 4.69 µM) | 2.63 (≈ 6.14 µM) | 2.95 (≈ 6.88 µM) | 5.3 (≈ 12.4 µM)
19 | COc1cc(-c2cc(=O)c3ccc(O)c(O)c3o2)cc(OC)c1O | > 25 | > 25 | 5.12 (≈ 15.5 µM) | 6.33 (≈ 19.2 µM) | > 25
20 | O=c1cc(-c2cccc(O)c2)oc2ccc(O)cc12 | > 25 | > 25 | > 25 | > 25 | > 25
21 | COc1cc(-c2cc(=O)c3ccc(O)c(O)c3o2)cc(OC)c1O[Si](C)(C)C(C)(C)C | 3.31 (≈ 7.45 µM) | 0.31 (≈ 0.697 µM) | 0.34 (≈ 0.765 µM) | 0.11 (≈ 0.247 µM) | 0.2 (≈ 0.45 µM)
22 | O=c1cc(-c2cccc(O)c2)oc2cccc(O)c12 | 3.24 (≈ 12.7 µM) | 6.93 (≈ 27.3 µM) | 3.47 (≈ 13.6 µM) | 3.09 (≈ 12.2 µM) | > 10
23 | COc1cc(-c2cc(=O)c3cc(O)ccc3o2)cc(OC)c1OC | 9.82 (≈ 29.9 µM) | > 25 | 7.85 (≈ 23.9 µM) | 5.87 (≈ 17.9 µM) | > 25
24 | COc1cc(-c2cc(=O)c3ccc(OC(C)=O)cc3o2)cc(OC)c1O[Si](C)(C)C(C)(C)C | 2.9 (≈ 6.16 µM) | 4.19 (≈ 8.9 µM) | 1.94 (≈ 4.12 µM) | 0.8 (≈ 1.7 µM) | 2.95 (≈ 6.27 µM)
25 | COc1ccc2c(=O)cc(-c3cc(OC)c(OC)c(OC)c3)oc2c1 | > 25 | > 25 | > 25 | > 25 | > 25
26 | COc1ccc2oc(-c3ccc(O)cc3)c(C(=O)O)c(=O)c2c1 | > 25 | > 25 | > 25 | > 25 | > 25
